Test results reported in article PMC8241002, “A tumor-targeting cRGD-EGFR siRNA conjugate and its anti-tumor effect on glioblastoma in vitro and in vivo” (Drug Delivery, 2017).
Oligonucleotides are written 5' to 3', each unit as a sugar letter and its base; * is a phosphorothioate linkage, no mark a phosphodiester; rarer units and linkages stand in square brackets, end groups in braces. Plain capitals give the bases only. d = 2'-deoxy (DNA); m = 2'-O-methyl; r = 2'-OH (RNA)

Experiments:
[1] = Serum stability in mouse serum (agarose gel electrophoresis); type: in vitro ADME; conditions: 37 °C
Procedure: Five microliters of 20 μM cRGD-siEGFR or EGFR siRNA was mixed with 5 μL of mouse serum and incubated at 37 °C for 0, 12, 24, 36 and 48 h. Aliquots were taken at each of the time points and subjected to electrophoresis in 1.2% non-denaturing agarose gels.
(§1) Figure S1. The characterization of cRGD-siEGFR conjugates and silencing efficiency of EGFR siRNA sequences. (A) The identification of cRGD-siEGFR by HPLC-MS. The measured mass of the sense strand conjugated with cRGD is 7923.4 Da (predicted mass is 7921.4 Da). (B) The analysis of purified cRGD-siEGFR with RP-HPLC. The purity of cRGD-siEGFR, calculated by the peak area normalization method, was 88.0%. (C) The serum stability of cRGD-siEGFR and EGFR siRNA sequences. Molecules were incubated in mouse serum at 37°C for the indicated time periods and then analyzed using agarose (1.2%) gel electrophoresis. (D) Gene silencing efficiency. U87MG cells were treated for 48 h with EGFR-targeting siRNAs, complexed with Lipofectamine 2000. The expression level of EGFR mRNA was analyzed by qRT-PCR. * P<0.05 vs. control group, # P<0.05 vs. siNC group, n=3

EGFR mRNA = assay: Gene silencing efficiency of EGFR siRNA sequences complexed with Lipofectamine 2000 (qRT-PCR); type: cell-based, human; conditions: U87MG cells, 48 h, complexed with Lipofectamine 2000, EGFR mRNA by qRT-PCR, n=3
Procedure: The relative expression level of EGFR mRNA was tested by qRT-PCR.
The qRT-PCR and western blot analysis were conducted as previously described (Liu et al., [2014]).
as §1

Substance	stability (three 2′-O-Me modifications on both ends of both strands) ([1]; mouse serum, agarose gel electrophoresis)	silencing efficiency (EGFR mRNA)	degradation in mouse serum after 24 h ([1]; 5 μL of 20 μM mixed with 5 μL mouse serum, 24 h, 1.2% non-denaturing agarose gel electrophoresis)
EGFR siRNA-C: Sense 5’mCmAmAAGUGUGUAACGGAmAmUmAdTdT-3’; antisense 5’mUmAmUUCCGUUACACACUmUmUmGdTdT-3’ (sense CAAAGUGUGUAACGGAAUATT; antisense UAUUCCGUUACACACUUUGTT; sugars from the 5' end m3 r13 m3 d2, backbone not given here; further chemistry not fully specified)	obviously improved	over 80%	
unmodified RNA oligonucleotides: Sense 5’CAAAGUGUGUAACGGAAUAdTdT-3’; antisense 5’UAUUCCGUUACACACUUUGdTdT-3’ (sense rCrArArArGrUrGrUrGrUrArArCrGrGrArArUrAdTdT; antisense rUrArUrUrCrCrGrUrUrArCrArCrArCrUrUrUrGdTdT)			mostly degraded
